Source: patent US20140377223A1, “SUBSTITUTED B[…] AND METHODS OF USE THEREOF FOR THE TREATMENT OF VIRAL DISEASES” (priority 2010, published 2014)

Experiments:
[1] = system: HCV replicon genotype 1a; test: Cell-based HCV replicon assay (TaqMan-based), genotype 1a; conditions: Hepatitis C virus, 72 h, HCV replicon cells, replicon RNA by real time PCR (TaqMan) on day 3
Experimental: (§1) Measurement of inhibition by compounds was performed using the HCV replicon system. Several different replicons encoding different HCV genotypes or mutations were used. In addition, potency measurements were made using different formats of the replicon assay, including different ways of measurements and different plating formats. See Jan M. Vrolijk et al., A replicons-based bioassay for the measurement of interferons in patients with chronic hepatitis C, 110 J. VIROLOGICAL METHODS 201 (2003); Steven S. Carroll et al., Inhibition of Hepatitis C Virus RNA Replication by 2′-Modified Nucleoside Analogs, 278(14) J. BIOLOGICAL CHEMISTRY 11979 (2003). However, the underlying principles are common to all of these determinations, and are outlined below.
(§2) TaqMan®-Based Assay Protocol: Compounds 1, 2 and 3 were assayed for cell-based anti-HCV activity by the following protocol. Replicon cells were seeded at 5000 cells/well in 96-well collagen I-coated Nunc plates in the presence of the test compound. Various concentrations of test compound, typically in 10 serial 2-fold dilutions, were added to the assay mixture, with the starting concentration ranging from 250 μM to 1 μM. The final concentration of DMSO was 0.5%, fetal bovine serum was 5%, in the assay media. Cells were harvested on day 3 by the addition of 1× cell lysis buffer (Ambion cat #8721). The replicon RNA level was measured using real time PCR (TaqMan® assay). The amplicon was located in 5B. The PCR primers were: 5B.2F, ATGGACAGGCGCCCTGA (SEQ. ID NO. 1); 5B.2R, […] (SEQ. ID NO. 2); the probe sequence was FAM-labeled CACGCCATGCGCTGCGG (SEQ. ID NO. 3). GAPDH RNA was used as endogenous control and was amplified in the same reaction as NS5B (multiplex PCR) using primers and VIC-labeled probe recommended by the manufacturer (PE Applied Biosystem). […] Alternatively, to quantitate the absolute amount of replicon RNA, a standard curve was established by including serially diluted T7 transcripts of replicon RNA in the Taqman assay. […]

[2] = system: HCV replicon genotype 1b; test: Cell-based HCV replicon assay (TaqMan-based), genotype 1b; conditions: Hepatitis C virus, 72 h, HCV replicon cells, replicon RNA by real time PCR (TaqMan) on day 3
Experimental: as §1, §2

[3] = system: HCV replicon genotype 2a; test: Cell-based HCV replicon assay (TaqMan-based), genotype 2a; conditions: Hepatitis C virus, 72 h, HCV replicon cells, replicon RNA by real time PCR (TaqMan) on day 3
Experimental: as §1, §2

[4] = system: HCV replicon genotype 3a; test: Cell-based HCV replicon assay (TaqMan-based), genotype 3a; conditions: Hepatitis C virus, 72 h, read-out: Genotype EC50 (nM) 3a
Experimental: as §1, §2

COC(=O)N[C@H](C(=O)N1CCC[C@H]1c1ncc(-c2ccc3c(c2)-c2ccc(-c4cnc([C@@H]5CCCN5C(=O)[C@@H](NC(=O)OC)C(C)C)[nH]4)cc2-3)[nH]1)C(C)C [Compound 1]
EC50 [1]: 0.03 nM
EC50 [2]: 0.007 nM
EC50 [3]: < 0.019 nM
EC50 [4]: < 0.19 nM

COC(=O)N[C@H](C(=O)N1C(c2ncc(-c3ccc4c(c3)-c3ccc(-c5cnc([C@@H]6[C@H]7CC[C@H](C7)N6C(=O)[C@@H](NC(=O)OC)C(C)C)[nH]5)cc3-4)[nH]2)[C@H]2CC[C@@H]1C2)C(C)C (stereo partly drawn) [Compound 2]
EC50 [1]: 0.52 nM
EC50 [2]: 0.005 nM
EC50 [3]: < 0.019 nM
EC50 [4]: < 0.19 nM

COC(=O)N[C@H](C(=O)N1CC(F)(F)C[C@H]1c1ncc(-c2ccc3c(c2)-c2ccc(-c4cnc([C@@H]5CC(F)(F)CN5C(=O)[C@@H](NC(=O)OC)C(C)C)[nH]4)cc2-3)[nH]1)C(C)C [Compound 3]
EC50 [1]: 0.05 nM
EC50 [2]: 0.003 nM
EC50 [3]: < 0.019 nM
EC50 [4]: 0.022 nM
